Experiment [1] concerns the target unphosphorylated c-FMS kinase (uFMS, Seq. ID no. 1) (Homo sapiens (Human), UniProt P07333). Briefly: uFMS kinase assay (ADP production coupled to pyruvate kinase/lactate dehydrogenase). The experiment is classed as biochemical. The procedure, abridged: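 Unphosphorylated FMS (10 nM) with polyE4Y 1 mg/mL and 500 μM ATP in 90 mM Tris pH 7.5, 10 mM MgCl2, 0.2% octyl-glucoside, 1% DMSO. ADP formation was coupled via pyruvate kinase/LDH to NADH oxidation, followed at A340 for 4 h at 30° C.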

The target in experiment [2] is unphosphorylated c-KIT kinase (uKIT, Seq. ID no. 2) (Homo sapiens (Human), UniProt P10721). Briefly: uKit kinase assay (coupled pyruvate kinase/lactate dehydrogenase). Type of experiment: biochemical. The settings on record: enzymatic assay, ATP 2000 μM. The method in brief:
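The read-out was a continuous PK/LDH-coupled decrease in NADH absorbance at 340 nm, monitored at 30 °C over 4 h. IC50 came from % inhibition based on rates at 3–4 h. The GST-tagged unphosphorylated KIT (12 nM) was used with polyE4Y substrate, 2000 μM ATP and 10 mM Mg2+ at pH 7.5, with serially diluted compound.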

Experiment [3] has as its target unphosphorylated PDGFRβ kinase (uPDGFRβ, Seq. ID No. 3) (Homo sapiens (Human), UniProt P09619). Briefly: Unphosphorylated PDGFRβ kinase assay (coupled pyruvate kinase/lactate dehydrogenase). The settings on record: enzymatic assay, ATP 500 μM. Type of experiment: biochemical. The procedure, abridged: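 Construct residues 557-1106, unphosphorylated, 15.7 nM, with poly E4Y 2.5 mg/mL and 500 μM ATP, Tris pH 7.5, 1% DMSO, 30 °C. ADP coupled to NADH oxidation via PK/LDH, A340 followed 4 h; rate from 1.5-2.5 h versus no-compound control, IC50 from percent-inhibition series.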

In the next experiment the test system is M-NFS-60 cells. Nature of the experiment: M-NFS-60 cell proliferation assay (resazurin). The following applies: 67 h incubation. The experiment is classed as cell-based. The procedure, abridged:
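Cells kept in medium containing 20 ng/mL mouse recombinant M-CSF. Fluorescence was read at ex 540/em 600 nm, and IC50 was fitted from percent inhibition across a range of inhibitor concentrations.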
Background: Alamar Blue is a resazurin reagent that responds to reducing activity.

[4] abbreviates: enzymatic assay, ATP 500 μM, read-out: uFMS.

Like-named read-outs stand apart in the source and are kept apart here. A value given as a limit tells only on which side of the number the result lay.

unphosphorylated c-FMS kinase (uFMS, Seq. ID no. 1), sequence (P07333 538-972): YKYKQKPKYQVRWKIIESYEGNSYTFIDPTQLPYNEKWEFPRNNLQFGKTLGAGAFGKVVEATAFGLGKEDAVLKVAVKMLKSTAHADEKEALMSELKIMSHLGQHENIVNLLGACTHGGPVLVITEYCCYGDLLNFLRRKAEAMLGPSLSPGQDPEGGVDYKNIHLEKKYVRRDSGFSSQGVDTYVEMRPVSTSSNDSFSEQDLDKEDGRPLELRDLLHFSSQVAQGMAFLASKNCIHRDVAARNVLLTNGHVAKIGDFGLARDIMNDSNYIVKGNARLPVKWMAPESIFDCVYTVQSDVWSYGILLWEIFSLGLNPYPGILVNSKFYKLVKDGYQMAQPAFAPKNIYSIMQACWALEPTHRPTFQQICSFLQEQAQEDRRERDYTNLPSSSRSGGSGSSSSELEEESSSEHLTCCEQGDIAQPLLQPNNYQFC
unphosphorylated c-KIT kinase (uKIT, Seq. ID no. 2), sequence (P10721 other isoform, or with tags, fused parts or gaps): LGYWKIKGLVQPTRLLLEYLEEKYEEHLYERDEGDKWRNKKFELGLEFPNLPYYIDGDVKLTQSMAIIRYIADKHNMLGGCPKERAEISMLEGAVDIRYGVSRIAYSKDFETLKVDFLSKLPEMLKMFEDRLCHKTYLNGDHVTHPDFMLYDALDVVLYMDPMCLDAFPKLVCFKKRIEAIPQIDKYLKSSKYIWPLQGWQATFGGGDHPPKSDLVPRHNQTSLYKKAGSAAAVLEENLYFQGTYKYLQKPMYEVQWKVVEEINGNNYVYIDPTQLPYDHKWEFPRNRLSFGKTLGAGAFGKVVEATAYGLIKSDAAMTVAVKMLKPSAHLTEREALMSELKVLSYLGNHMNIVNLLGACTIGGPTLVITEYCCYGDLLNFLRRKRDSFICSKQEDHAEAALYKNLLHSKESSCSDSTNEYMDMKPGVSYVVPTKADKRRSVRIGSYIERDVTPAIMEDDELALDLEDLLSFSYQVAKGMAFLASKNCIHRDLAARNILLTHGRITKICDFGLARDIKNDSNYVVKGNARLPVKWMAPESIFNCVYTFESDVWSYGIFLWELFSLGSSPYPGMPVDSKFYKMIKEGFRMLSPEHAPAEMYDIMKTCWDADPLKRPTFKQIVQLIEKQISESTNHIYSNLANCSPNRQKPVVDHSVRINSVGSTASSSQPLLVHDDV
unphosphorylated PDGFRβ kinase (uPDGFRβ, Seq. ID No. 3), sequence (P09619 557-1106): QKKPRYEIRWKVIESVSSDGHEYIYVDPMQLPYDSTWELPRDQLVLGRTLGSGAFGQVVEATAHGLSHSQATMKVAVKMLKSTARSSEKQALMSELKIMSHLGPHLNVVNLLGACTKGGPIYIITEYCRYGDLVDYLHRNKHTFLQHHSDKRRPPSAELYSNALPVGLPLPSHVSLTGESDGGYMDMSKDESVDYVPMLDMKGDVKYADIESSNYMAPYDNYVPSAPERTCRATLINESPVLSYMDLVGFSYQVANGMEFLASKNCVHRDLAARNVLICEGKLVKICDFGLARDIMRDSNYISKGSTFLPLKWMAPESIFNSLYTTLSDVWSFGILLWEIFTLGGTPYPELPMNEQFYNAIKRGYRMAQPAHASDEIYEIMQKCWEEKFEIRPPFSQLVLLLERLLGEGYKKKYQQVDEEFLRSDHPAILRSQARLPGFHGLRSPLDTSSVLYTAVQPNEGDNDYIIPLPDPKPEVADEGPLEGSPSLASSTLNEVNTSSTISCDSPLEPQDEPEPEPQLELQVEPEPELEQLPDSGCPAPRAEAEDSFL

On to `Cc1nc(NC(=O)N2CCN(C(C)(C)C)C2=O)ccc1Oc1ccnc(-c2cnn(C)c2)c1` [Example 33, 3-(tert-butyl)-N-(6-methyl-5-((2-(1-methyl-1H-pyrazol-4-yl)pyridin-4-yl)oxy)pyridin-2-yl)-2-oxoimidazolidine-1-carboxamide], for which the IC50 is less than 0.01 µM in experiment [1] (setting [4]), less than 0.01 µM in experiment [2], 0.1 to 1 µM in experiment [3] and 0.01 to 0.1 µM in the experiment on M-NFS-60 cells.

In the case of `Cn1cc(-c2cc(Oc3ccc(NC(=O)N4CCN(C5CCOCC5)C4=O)nc3)ccn2)cn1` [Example 1, N-(5-((2-(1-methyl-1H-pyrazol-4-yl)pyridin-4-yl)oxy)pyridin-2-yl)-2-oxo-3-(tetrahydro-2H-pyran-4-yl)imidazolidine-1-carboxamide], the IC50 in experiment [1] (Table 4, read-out: c-FMS IC50) was 0.006 µM; in experiment [1] (setting [4]) it was less than 0.01 µM; in experiment [2] it was 0.01 to 0.1 µM; in experiment [3] it was 0.1 to 1 µM; in the experiment with M-NFS-60 cells it was 0.01 to 0.1 µM.

Consider `COCCCN1CCN(C(=O)Nc2ccc(Oc3ccnc(-c4cnn(C)c4)c3)c(C)n2)C1=O` [Example 19, 3-(3-methoxypropyl)-N-(6-methyl-5-((2-(1-methyl-1H-pyrazol-4-yl)pyridin-4-yl)oxy)pyridin-2-yl)-2-oxoimidazolidine-1-carboxamide], for which the IC50 in experiment [1] (setting [4]) was 0.01 to 0.1 µM; in experiment [2] it was 0.01 to 0.1 µM; in experiment [3], greater than 1 µM; in the experiment on M-NFS-60 cells it was 0.01 to 0.1 µM.

On to `Cc1nc(NC(=O)N2CCN(C3CCCC3)C2=O)ccc1Oc1ccnc(-c2cnn(C)c2)c1` [Example 29, 3-cyclopentyl-N-(6-methyl-5-((2-(1-methyl-1H-pyrazol-4-yl)pyridin-4-yl)oxy)pyridin-2-yl)-2-oxoimidazolidine-1-carboxamide], for which the IC50 was 0.002 µM in experiment [1] (Table 4, read-out: c-FMS IC50); less than 0.01 µM in experiment [1] (setting [4]); less than 0.01 µM in experiment [2]; greater than 1 µM in experiment [3]; less than 0.01 µM in the experiment on M-NFS-60 cells.

For `CCN1CCN(C(=O)Nc2ccc(Oc3ccnc(-c4cnc(C)o4)c3)cn2)C1=O` [Example 117, 3-ethyl-N-(5-((2-(2-methyloxazol-5-yl)pyridin-4-yl)oxy)pyridin-2-yl)-2-oxoimidazolidine-1-carboxamide], the IC50 in experiment [1] (setting [4]) is 0.1 to 1 µM; in experiment [2], 0.1 to 1 µM; in experiment [3] it was greater than 1 µM; with M-NFS-60 cells it was 0.1 to 1 µM.

Consider `Cn1cc(-c2cc(Oc3ccc(NC(=O)N4CCN(C5CCOC5)C4=O)nc3)ccn2)cn1` (stereo in doubt) [Example 12, (S)—N-(5-((2-(1-methyl-1H-pyrazol-4-yl)pyridin-4-yl)oxy)pyridin-2-yl)-2-oxo-3-(tetrahydrofuran-3-yl)imidazolidine-1-carboxamide], for which the IC50 in experiment [1] (setting [4]) was 0.01 to 0.1 µM; in experiment [2], 0.01 to 0.1 µM; in experiment [3], greater than 1 µM; with M-NFS-60 cells it was 0.01 to 0.1 µM.

Regarding `CCc1nc(NC(=O)N2CCN(C3CCOCC3)C2=O)ccc1Oc1ccnc(-c2cnn(C)c2)c1` [Example 49, N-(6-ethyl-5-((2-(1-methyl-1H-pyrazol-4-yl)pyridin-4-yl)oxy)pyridin-2-yl)-2-oxo-3-(tetrahydro-2H-pyran-4-yl)imidazolidine-1-carboxamide], the IC50 in experiment [1] (setting [4]) was 0.01 to 0.1 µM; in experiment [2] it was greater than 1 µM; in experiment [3], greater than 1 µM; in the experiment with M-NFS-60 cells it was 0.1 to 1 µM.

Take `CC(=O)Nc1cc(Oc2ccc(NC(=O)N3CCN(C4CCOCC4)C3=O)nc2)ccn1` [Example 119, N-(5-((2-acetamidopyridin-4-yl)oxy)pyridin-2-yl)-2-oxo-3-(tetrahydro-2H-pyran-4-yl)imidazolidine-1-carboxamide]: the IC50 in experiment [1] (setting [4]) was in the range of 0.01 to 0.1 µM; in experiment [2], 0.1 to 1 µM; in experiment [3] it was 0.1 to 1 µM; in the experiment with M-NFS-60 cells, 0.01 to 0.1 µM.

For the compound `Cc1ccc(-c2cc(Oc3ccc(NC(=O)N4CCN(C5CCOCC5)C4=O)nc3)ccn2)cn1` [Example 52, N-(5-((6′-methyl-[2,3′-bipyridin]-4-yl)oxy)pyridin-2-yl)-2-oxo-3-(tetrahydro-2H-pyran-4-yl)imidazolidine-1-carboxamide], the IC50 lay in the range of 0.01 to 0.1 µM in experiment [1] (setting [4]), 0.01 to 0.1 µM in experiment [2], 0.1 to 1 µM in experiment [3] and 0.01 to 0.1 µM with M-NFS-60 cells.

For the compound `Cn1cc(-c2cc(Oc3ccc(NC(=O)N4CCN(CCOC(F)(F)F)C4=O)nc3)ccn2)cn1` [Example 21, N-(5-((2-(1-methyl-1H-pyrazol-4-yl)pyridin-4-yl)oxy)pyridin-2-yl)-2-oxo-3-(2-(trifluoromethoxy)ethyl)imidazolidine-1-carboxamide], the IC50 in experiment [1] (setting [4]) is 0.01 to 0.1 µM; in experiment [2] it was 0.01 to 0.1 µM; in experiment [3], greater than 1 µM; in the experiment with M-NFS-60 cells, 0.01 to 0.1 µM.

Take `COCCN1CCN(C(=O)Nc2ccc(Oc3ccnc(-c4cnn(C)c4)c3)c(C)n2)C1=O` [Example 18, 3-(2-methoxyethyl)-N-(6-methyl-5-((2-(1-methyl-1H-pyrazol-4-yl)pyridin-4-yl)oxy)pyridin-2-yl)-2-oxoimidazolidine-1-carboxamide]: the IC50 in experiment [1] (Table 4, read-out: c-FMS IC50) was 0.02 µM; in experiment [1] (setting [4]), 0.01 to 0.1 µM; in experiment [2], 0.1 to 1 µM; in experiment [3], greater than 1 µM; in the experiment on M-NFS-60 cells, 0.1 to 1 µM.

`COCCN1CCN(C(=O)Nc2ccc(Oc3ccnc(-c4cnn(C)c4)c3)cn2)C1=O` [Example 10, 3-(2-methoxyethyl)-N-(5-((2-(1-methyl-11H-pyrazol-4-yl)pyridin-4-yl)oxy)pyridin-2-yl)-2-oxoimidazolidine-1-carboxamide]: the IC50 in experiment [1] (setting [4]) was 0.01 to 0.1 µM; in experiment [2] it was 0.1 to 1 µM; in experiment [3], greater than 1 µM; in the experiment on M-NFS-60 cells, 0.01 to 0.1 µM.

As to `Cc1nc(NC(=O)N2CCN(C3CCC(F)(F)CC3)C2=O)ccc1Oc1ccnc(-c2cnn(C)c2)c1` [Example 26, 3-(4,4-difluorocyclohexyl)-N-(6-methyl-5-((2-(1-methyl-1H-pyrazol-4-yl)pyridin-4-yl)oxy)pyridin-2-yl)-2-oxoimidazolidine-1-carboxamide], the IC50 in experiment [1] (setting [4]) was less than 0.01 µM; in experiment [2], 0.01 to 0.1 µM; in experiment [3], greater than 1 µM; with M-NFS-60 cells, less than 0.01 µM.

In the case of `Cc1nc(NC(=O)N2CCN(C3CCCCC3)C2=O)ccc1Oc1ccnc(-c2cnn(C)c2)c1` [Example 22, 3-cyclohexyl-N-(6-methyl-5-((2-(1-methyl-1H-pyrazol-4-yl)pyridin-4-yl)oxy)pyridin-2-yl)-2-oxoimidazolidine-1-carboxamide], the IC50 in experiment [1] (setting [4]) is less than 0.01 µM; in experiment [2], 0.01 to 0.1 µM; in experiment [3], greater than 1 µM; in the experiment on M-NFS-60 cells, less than 0.01 µM.

`CCN1CCN(C(=O)Nc2ccc(Oc3ccnc(-c4cnn(C)c4)c3)c(C)n2)C1=O` [Example 42, 3-ethyl-N-(6-methyl-5-((2-(1-methyl-1H-pyrazol-4-yl)pyridin-4-yl)oxy)pyridin-2-yl)-2-oxoimidazolidine-1-carboxamide]: the IC50 in experiment [1] (Table 4, read-out: c-FMS IC50) is 0.008 µM; in experiment [1] (setting [4]) it was less than 0.01 µM; in experiment [2] it was 0.1 to 1 µM; in experiment [3], greater than 1 µM; in the experiment with M-NFS-60 cells it was 0.01 to 0.1 µM.

As for `CCc1nc(NC(=O)N2CCN(C3CCCC3)C2=O)ccc1Oc1ccnc(-c2cnn(C)c2)c1` [Example 57, 3-cyclopentyl-N-(6-ethyl-5-((2-(1-methyl-1H-pyrazol-4-yl)pyridin-4-yl)oxy)pyridin-2-yl)-2-oxoimidazolidine-1-carboxamide], the IC50 is less than 0.01 µM in experiment [1] (setting [4]), greater than 1 µM in experiment [2], greater than 1 µM in experiment [3] and less than 0.01 µM in the experiment with M-NFS-60 cells.

For the origin of these results see patent US9133183B2, “Imidazolidinones and analogs exhibiting anti-cancer and anti-proliferative activities” (Deciphera Pharmaceuticals, LLC, priority 2013, dated 2015).
